Results published in patent US12338203B2 (TAISHO PHARMACEUTICAL CO., LTD., priority 2019, dated 2025).

Target: T1, human LPAR1 (Homo sapiens, UniProt Q92633)
T1 construct: expressed in transfected cells
Assay: Test Example 1: antagonism against response of LPA-induced increase in intracellular Ca2+ concentration in RH7777 cells stably expressing human LPAR1
Type: cell-based
Settings: RH7777 cells stably expressing human LPAR1; Fluo-4 fluorescence, FDSS6000; read-out: IC50 value (concentration producing 50% antagonism against response of LPA-induced increase in intracellular Ca2+ concentration) (converted)
Procedure, shortened: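 Ca2+ flux read at 540 nm emission (480 nm excitation) after LPA addition to human LPAR1-expressing RH7777 cells exposed to compound for 30 min, 37 °C, pH 7.4 HEPES-buffered HBSS. Response relative to no-compound control after basal subtraction; IC50 fitted from concentration–response.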

T1 sequence (Q92633 whole entry): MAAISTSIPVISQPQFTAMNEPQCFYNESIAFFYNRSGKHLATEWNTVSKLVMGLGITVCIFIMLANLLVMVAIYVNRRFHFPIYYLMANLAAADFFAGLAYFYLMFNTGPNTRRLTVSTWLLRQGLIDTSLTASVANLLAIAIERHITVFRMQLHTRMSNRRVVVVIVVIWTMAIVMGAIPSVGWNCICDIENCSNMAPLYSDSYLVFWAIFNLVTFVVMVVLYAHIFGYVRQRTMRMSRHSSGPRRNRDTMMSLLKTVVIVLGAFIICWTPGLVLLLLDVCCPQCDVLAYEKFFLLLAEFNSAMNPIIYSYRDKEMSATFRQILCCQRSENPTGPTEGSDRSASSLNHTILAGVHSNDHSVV

| IC50 [nM] | SMILES |
| --- | --- |
| 3.62 | COc1cc(C(C)N(CCOCc2ccccc2)C(=O)NC2(C(=O)O)CC(F)(F)C2)c(C)c(OC)c1C (centres unmarked) [Example 5-147] |
| 3.1 | CCOc1cc(C(C)N(CCCCc2ccccc2)C(=O)NC2(C(=O)O)CC(OCC)C2)c(Cl)c(OCC)c1C(C)=O (centres unmarked) [Example 5-50] |
| 21.5 | CCOc1cc(C(C)N(CCC(F)(F)Cc2ccccc2)C(=O)NC2(c3nn[nH]n3)CC(F)(F)C2)c(Cl)c(OCC)c1C(C)=O (centres unmarked) [Example 10-12] |
| 2 | CCOc1cc(C(C)N(CCOCc2ccccc2)C(=O)NC2(C(=O)O)CCC2)c(C)c(OCC)c1C (centres unmarked) [Example 5-193] |
| 2.48 | CCOc1cc(C(C)N(CCCCc2ccccc2)C(=O)NC(C)(C)c2nn[nH]n2)cc(OCC)c1C(C)=O (centres unmarked) [Example 10-2] |
| 10.3 | CCO[C@H]1C[C@@](NC(=O)N(CCO[C@@H](C)c2ccccc2)C(C)c2cc(OC)c(C(C)=O)c(OC)c2Cl)(C(=O)O)C1 (some centres unmarked) [Example 5-128] |
| 1.1 | COc1cc(C(C)N(CCOCc2ccccc2)C(=O)NC2(C(=O)O)CC(OC)C2)c(C)c(OC)c1C1CC1 (centres unmarked) [Example 5-155] |
| 2.15 | CCOc1cc([C@@H](C)N(CCO[C@@H](C)c2ccccc2)C(=O)NC2(C(=O)O)CCC2)c(Cl)c(OCC)c1C(C)=O [Example 5-30] |
| 10.8 | COc1cc(C(C)N(CCOCc2ccccc2)C(=O)NC2(C(=O)O)CCC2)cc(OC)c1C1CC1 (centres unmarked) [Example 5-131] |
| 12.2 | CCNc1cc(C(C)N(CCCCc2ccccc2)C(=O)NC2(C(=O)O)CCS(=O)(=O)CC2)cc(OCC)c1C(C)=O (centres unmarked) [Example 5-105] |
| 8.18 | COc1cc(C(C)N(CCO[C@@H](C)c2ccccc2)C(=O)NC2(C(=O)O)CCC2)cc(OC)c1C1CC1 (some centres unmarked) [Example 5-137] |
| 4.32 | COc1cc(OC)cc(C(C)N(CCCCc2ccccc2)C(=O)NC2(C(=O)O)CC(F)(F)C2)c1 (centres unmarked) [Example 5-13] |
| 39.7 | CC(c1ccc(C#N)cc1)N(CCCCc1ccccc1)C(=O)NC1(C(=O)O)CC(F)(F)C1 (centres unmarked) [Example 5-5] |
| 191 | CCNc1cc([C@H](C)N(CCCCc2ccccc2)C(=O)NC2(C(=O)O)CC(F)(F)C2)cc(OCC)c1C(C)=O [Example 5-109] |
| 4.08 | CCOc1cc([C@@H](C)N(CCO[C@@H](C)c2ccccc2)C(=O)NC2(C(=O)O)CC(OC)C2)c(Cl)c(OCC)c1C(C)O (single isomer, unassigned) [Example 5-57] |
| 54.2 | COc1cc(C(C)N(CCOCc2ccccc2)C(=O)NC2(C(=O)O)CCOCC2)cc(OC)c1C(C)=O (centres unmarked) [Example 5-172] |
| 2.31 | CCOc1cc([C@@H](C)N(CCO[C@@H](C)c2ccccc2)C(=O)N[C@]2(C(=O)O)C[C@@H](OC)C2)c(Cl)c(OCC)c1C(C)=O [Example 5-28] |
| 3.94 | CCO[C@H]1C[C@@](NC(=O)N(CCOCc2ccccc2)C(C)c2cc(OC)c(C(C)=O)c(OC)c2Cl)(C(=O)O)C1 (some centres unmarked) [Example 5-127] |
| 4.55 | COc1cc(C(C)N(CCOC(C)c2ccccc2)C(=O)N[C@]2(C(=O)O)C[C@@H](OC)C2)c(C)c(OC)c1C (some centres unmarked) [Example 5-160] |
| 43.1 | COc1cc(C(C)N(CCCCc2ccccc2)C(=O)NC2(C(=O)O)CC(F)(F)C2)nc(OC)n1 (centres unmarked) [Example 5-88] |
| 0.761 | CCOc1cc(C(C)N(CCOCc2ccccc2)C(=O)NC2(C(=O)O)CC(OC)C2)cc(OCC)c1C1CC1 (centres unmarked) [Example 5-199] |

Second part, the compound before the results:

| SMILES | IC50 [nM] |
| --- | --- |
| CCC(c1cc(OC)c(C)c(OC)c1)N(CCCCc1ccccc1)C(=O)NC1(C(=O)O)CC(F)(F)C1 (centres unmarked) [Example 3-3] | 30.1 |
| CCOc1c(C(C)O)ccc([C@@H](C)N(CCCCc2ccccc2)C(=O)NC2(C(=O)O)CC(F)(F)C2)c1C (single isomer, unassigned) [Example 1-79] | 7.86 |
| CCOc1cc([C@@H](C)N(CCOCc2ccccc2)C(=O)NC2(C(=O)O)CC(F)(F)C2)cc(OCC)c1C(C)=O [Example 4-102] | 0.815 |
| CCOc1cc([C@@H](C)N(CCOCc2ccccc2)C(=O)NC2(C(=O)O)CC(F)(F)C2)cc(OCC)c1C(C)O (some centres unmarked) [Example 4-104] | 1.31 |
| CCOc1c(C(C)=O)ccc([C@@H](C)N(CCC(F)(F)Cc2ccccc2)C(=O)NC2(C(=O)O)CC(F)(F)C2)c1C [Example 4-88] | 15.4 |
| CCOc1c(C(C)=O)ccc([C@@H](C)N(CCCCc2ccccc2)C(=O)NC2(C(=O)O)CC2)c1C [Example 1-19] | 4.1 |
| CCOc1cc([C@@H](C)N(CCCCc2ccccc2)C(=O)NC2(C(=O)O)CC(N3CCCC3)C2)cc(OCC)c1C (some centres unmarked) [Example 1-108] | 512 |
| CCOc1cc([C@@H](C)N(CCC(F)(F)Cc2ccccc2)C(=O)NC2(C(=O)O)CCOCC2)cc(OCC)c1C1CC1 [Example 4-96] | 8.25 |
| CCOc1cc([C@@H](C)N(CCc2ccc(OC)cc2)C(=O)NC2(C(=O)O)CC(F)(F)C2)cc(OCC)c1C [Example 4-20] | 148 |
| CCCOc1cc(C(C)N(CCCCc2ccccc2)C(=O)NC2(C(=O)O)CC(F)(F)C2)cc(OCC)c1C (centres unmarked) [Example 1-69] | 5.04 |
| CCOc1cc([C@@H](C)N(CCCCC2CCNCC2)C(=O)NC2(C(=O)O)CC(F)(F)C2)cc(OCC)c1C [Example 4-34, 1-({[(1R)-1-(3,5-Diethoxy-4-Methylphenyl)Ethyl][4-(Piperidin-4-Yl)Butyl]Carbamoyl}Amino)-3,3-Difluorocyclobutane-1-Carboxylic Acid] | 7630 |
| CCOc1cc([C@@H](C)N(CCCCc2ccccc2)C(=O)NC2CC(C(=O)O)N(C(C)=O)C2)cc(OCC)c1C(C)=O (some centres unmarked) [Example 1-163] | 20.5 |
| CCOc1cc([C@@H](C)N(CCCCc2ccccc2)C(=O)NC2(C(=O)O)CCCCC2)cc(OCC)c1C [Example 1-118] | 42.8 |
| COc1cc([C@@H](C)N(CCCCc2ccccc2)C(=O)NC2(C(=O)O)CCCC2)cc(OC)c1C [Example 1-117] | 16.8 |
| CCOc1cc([C@@H](C)N(CCCCc2ccccc2)C(=O)NC(C)(C)C(=O)O)cc(OCC)c1C(C)=O [Example 1-1, N-{[(1R)-1-(4-Acetyl-3,5-Diethoxyphenyl)Ethyl](4-Phenylbutyl) Carbamoyl}-2-Methylalanine] | 3.17 |
| CCOc1cc([C@@H](C)N(CCO[C@@H](C)c2ccccc2)C(=O)NC2(C(=O)O)CCOCC2)cc(OCC)c1C(C)=O [Example 4-142] | 5.9 |
| CCOc1cc([C@@H](C)N(CC2CC(c3ccccc3)C2)C(=O)NC2(C(=O)O)CC(F)(F)C2)cc(OCC)c1C (some centres unmarked) [Example 4-42] | 25.2 |
| CCOc1cc([C@@H](C)N(CCO[C@@H](C)c2ccccc2)C(=O)NC2(C(=O)O)CC(OC)C2)cc(OCC)c1C(C)O (some centres unmarked) [Example 4-123] | 7.82 |
| CCOc1cc(C(C)N(CCCCc2ccccc2)C(=O)NC2(C(=O)O)CC(F)(F)C2)cc(OCC)c1S(C)(=O)=O (centres unmarked) [Example 1-57] | 26.6 |
| CCOc1cc(C(C)N(CCO[C@@H](C)c2ccccc2)C(=O)N[C@]2(C(=O)O)C[C@H](OCC)C2)cc(OCC)c1C(C)O (some centres unmarked) [Example 4-133] | 5.7 |
| CCOc1cc([C@@H](C)N(CCOCc2ccccc2)C(=O)NC2(C(=O)O)CC(OC)C2)cc(OCC)c1C(C)=O (some centres unmarked) [Example 4-108] | 3.6 |
| CCOc1cc(C(C)N(CCCCc2ccccc2)C(=O)NC2CC(CC(=O)O)C2)cc(OCC)c1C (centres unmarked) [Example 1-148] | 25.5 |
| CCOc1cc([C@@H](C)N(CCCC(F)(F)c2ccccc2)C(=O)NC2(C(=O)O)CCC2)cc(OCC)c1C(C)O (some centres unmarked) [Example 4-53] | 1.72 |
